Structures can show the parent of a compound that is named as a salt.

Assay [1] deals with T1, c-Myc/Max/Ebox DNA (Homo sapiens, UniProt P01106).
T1 construct: his6 (cleaved yes)
Kind of assay: c-Myc/Max/Ebox DNA AlphaScreen Assay. In kind it is binding. The settings on record: free c-Myc 20 nM, his6-Max 5 nM, biotinylated Ebox oligo 10 nM, 2 hour incubation. The method, then:
Compounds of the invention were assayed for c-Myc/Max/EBox activity as described in the following protocol. Human his6-c-Myc and his6-Max were used with biotinylated DNA containing a single Ebox sequence (biotin[…]) purchased from MWG Operon. Free c-Myc was generated from his6-c-Myc through thrombin cleavage of the his6 tag. For 384-well plate assays, 10 μL of a 2× solution of free c-Myc (20 nM final), Ni^2+ coated Acceptor Beads (25 μg/ml final), and biotinylated Ebox oligo (10 nM final) were added to 384-well plates with a Biotek EL406 liquid handler. 50 nL of compounds from stock plates were added by pin transfer using a Janus Workstation (PerkinElmer), allowing the compounds to interact with c-Myc prior to c-Myc binding with Max. In the current assay, DMSO was not allowed to exceed 2% v/v of the assay. 10 μl of 2× master mix containing streptavidin-coated donor beads (25 μg/ml final) and his6-Max (5 nM) were added. AlphaScreen measurements were performed on an Envision plate reader (PerkinElmer) utilizing the manufacturer's protocol.
Both master mixes were made in room temperature assay buffer (50 mM HEPES, 150 mM NaCl, 0.2% w/v BSA, 0.02% w/v Tween20, 40 μg/ml glycogen, 500 μM DTT, pH 8.0, wherein both DTT and glycogen were added fresh). Alpha beads were added to respective master solutions. All subsequent steps were performed in low light conditions. Solution 1: 2× solution of components with final concentrations of c-Myc Ni-coated Acceptor Beads (25 μg/ml), and biotinylated Ebox oligo (10 nM). Solution 2: 2× solution of streptavidin-coated donor beads (25 μg/ml final) and his6-Max […]. Solution 1 was added to 384-well plate (AlphaPlate-384, PerkinElmer) with Biotek EL406 liquid handler and the plates were centrifuged very briefly. 50 nL of compounds from stock plates were added by pin transfer using a Janus Workstation. Solution 2 (10 μL) was added with the liquid handler. Plates were sealed with foil to block light exposure and prevent evaporation. Plates were very briefly centrifuged followed by 2 hour incubation. AlphaScreen measurements were performed on an Envision 2104 utilizing the manufacturer's protocol. Excitation was at 680 nm for donor bead release of singlet oxygen and emission was read with a bandpass filter from 520-620 nm. Glycogen: Roche Diagnostics #10901393001. Plate 1536: Perkin Elmer, 6004350. Plate 384: Perkin Elmer, 6005350. Nickel-His Alpha Beads: 6760619R. The data from this assay are summarized in Table 3 below (Myc/Max/DNA Activity).

Assay [2] concerns human small lung cancer cell line H2171. The assay is described as follows: Cell Viability Assay (ATPlite). In kind it is cell-based. The following applies: NCI-H2171, 72 h, H2171 cells, incubated for three days, ATPlite readout. As to the method:
Compounds of the invention were assayed for cell viability using the human small lung cancer cell line H2171 as described in the following protocol. Cells were counted and adjusted to 20,000 cells/mL. Using a Biotek EL406, 50 μL of cells in media were distributed into 384 well white plates from Thermo. Immediately after plating, compound in DMSO was distributed to plates. Compounds were added to plates using a 50 nL 384 well pin transfer manifold on a Janus workstation. Stocks were arrayed in 10 point dose response in DMSO stock in 384 well Greiner compound plates. After the addition of compounds, plates were incubated for three days in a 37° C. incubator. Cell viability was read out using ATPlite from Perkin Elmer. Lyophilized powder was resuspended in lysis buffer and diluted 1:2 with deionized water. 25 μL of this solution was added to each well using the Biotek liquid handler. Plates were incubated for 15 minutes at room temperature before signal was read on an Envision Plate Reader. The data from this assay are summarized in Table 3 below (H2171 activity).
(In general: Cellular ATP, detected with luciferase, serves as a proxy for viable cell number.)

T1 sequence (P01106 whole entry): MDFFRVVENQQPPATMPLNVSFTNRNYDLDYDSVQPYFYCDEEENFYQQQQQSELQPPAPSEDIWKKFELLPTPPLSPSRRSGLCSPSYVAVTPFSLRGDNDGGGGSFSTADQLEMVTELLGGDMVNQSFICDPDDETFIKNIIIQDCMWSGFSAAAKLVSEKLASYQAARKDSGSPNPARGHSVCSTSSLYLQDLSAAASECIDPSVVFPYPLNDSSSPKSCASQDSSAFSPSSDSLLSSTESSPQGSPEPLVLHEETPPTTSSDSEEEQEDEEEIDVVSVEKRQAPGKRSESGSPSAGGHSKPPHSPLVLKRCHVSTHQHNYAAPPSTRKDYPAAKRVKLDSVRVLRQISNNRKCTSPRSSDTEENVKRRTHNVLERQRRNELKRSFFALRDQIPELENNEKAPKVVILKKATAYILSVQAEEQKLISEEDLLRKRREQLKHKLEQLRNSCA

As to `O=C(CCN[C@H]1CC[C@]2(CCC(=O)N2)CC1)Nc1sc2c(c1-c1nc3cnccc3s1)CCNC2` [Compound 177], the IC50 in assay [1] and in assay [2] was less than 500 nM each time.

In the case of `CC[C@H](C)N(CCC(=O)Nc1sc2c(c1-c1nc3cnccc3s1)CCNC2)Cc1ccccc1` [Compound 233, (S)-3-(Benzyl(sec-butyl)amino)-N-(3-(thiazolo[4,5-c]pyridin-2-yl)-4,5,6,7-tetrahydrothieno[2,3-c]pyridin-2-yl)propanamide hydrochloride], the IC50 in assay [1] was in the range of 5000 to 25000 nM; in assay [2] it was 500 to 5000 nM.

As for `CC[C@H](C)NCCC(=O)Nc1sc2c(c1-c1nc3c(C(F)F)nccc3s1)CCNC2` [Compound 226], the IC50 in assay [1] and in assay [2] was less than 500 nM each time.

As to `C[C@@H]1Cc2c(sc(NC(=O)CCN[C@@H]3C[C@H]4CNC[C@H]4C3)c2-c2nc3cnccc3s2)CN1` [Compound 250, N—((R)-5-methyl-3-(thiazolo[4,5-c]pyridin-2-yl)-4,5,6,7-tetrahydrothieno[2,3-c]pyridin-2-yl)-3-(((3aR,5s,6aS)-octahydrocyclopenta[c]pyrrol-5-yl)amino)propanamide], the IC50 in assay [1] was 500 to 5000 nM; in assay [2], less than 500 nM.

`CC[C@@H](C)NCCC(=O)Nc1sc2c(c1-c1nc3cnccc3s1)CCNC2` [Compound 217, (R)-3-(sec-butylamino)-N-(3-(thiazolo[4,5-c]pyridin-2-yl)-4,5,6,7-tetrahydrothieno[2,3-c]pyridin-2-yl)propanamide]: the IC50 in assay [1] and in assay [2] was less than 500 nM each time.

`CC(C)NCCC(=O)Nc1sc2c(c1-c1nc3ncccc3s1)CCNC2` [Compound 220, 3-(isopropylamino)-N-(3-(thiazolo[4,5-b]pyridin-2-yl)-4,5,6,7-tetrahydrothieno[2,3-c]pyridin-2-yl)propanamide dihydrochloride]: the IC50 in assay [1] and in assay [2] was less than 500 nM throughout.

As to `CCN1C(C)Cc2c(sc(NC(C)=O)c2-c2nc3cnccc3s2)C1C` (centres unmarked) [Compound 117, N-(6-ethyl-5,7-dimethyl-3-(thiazolo[4,5-c]pyridin-2-yl)-4,5,6,7-tetrahydrothieno[2,3-c]pyridin-2-yl)acetamide], the half-maximal inhibitory concentration (IC50) in assay [1] and in assay [2] was 500 to 5000 nM throughout.

`C[C@@H]1NCCc2c1sc(NC(=O)CCN[C@@H]1C[C@H]3CNC[C@H]3C1)c2-c1nc2cnccc2s1` [Compound 246, N—((S)-7-methyl-3-(thiazolo[4,5-c]pyridin-2-yl)-4,5,6,7-tetrahydrothieno[2,3-c]pyridin-2-yl)-3-(((3aR,5s,6aS)-octahydrocyclopenta[c]pyrrol-5-yl)amino)propanamide]: the IC50 was 500 to 5000 nM in assay [1] and less than 500 nM in assay [2].

Consider `C[15NH]CCC(=O)Nc1sc2c(c1-c1nc3cnccc3s1)CCNC2` [Compound 248, 3-(Methylamino)-N-(3-(thiazolo[4,5-c]pyridin-2-yl)-4,5,6,7-tetrahydrothieno[2,3-c]pyridin-2-yl)propanamide], for which the IC50 in assay [1] and in assay [2] was less than 500 nM in each case.

Turning to `COCCNCCC(=O)Nc1sc2c(c1-c1nc3c(C)nc(C)cc3s1)CCNC2` [Compound 227, N-(3-(4,6-Dimethylthiazolo[4,5-c]pyridin-2-yl)-4,5,6,7-tetrahydrothieno[2,3-c]pyridin-2-yl)-3-((2-methoxyethyl)amino)propanamide dihydrochloride], the IC50 in assay [1] and in assay [2] was less than 500 nM in each case.

As for `O=C(CCNC1CNC1)Nc1sc2c(c1-c1nc3cnccc3s1)CCNC2` [Compound 223, 3-(Azetidin-3-ylamino)-N-(3-(thiazolo[4,5-c]pyridin-2-yl)-4,5,6,7-tetrahydrothieno[2,3-c]pyridin-2-yl)propanamide], the IC50 in assay [1] and in assay [2] was less than 500 nM throughout.

For `C[C@H]1NCCc2c1sc(NC(=O)CCN[C@@H]1C[C@H]3CNC[C@H]3C1)c2-c1nc2cnccc2s1` [Compound 249, N—((R)-7-methyl-3-(thiazolo[4,5-c]pyridin-2-yl)-4,5,6,7-tetrahydrothieno[2,3-c]pyridin-2-yl)-3-(((3aR,5s,6aS)-octahydrocyclopenta[c]pyrrol-5-yl)amino)propanamide], the IC50 in assay [1] and in assay [2] was less than 500 nM each time.

For the compound `CC(=O)Nc1sc2c(c1-c1nc3c(C)nccc3s1)CCNC2` [Compound 118, N-(3-(4-methylthiazolo[4,5-c]pyridin-2-yl)-4,5,6,7-tetrahydrothieno[2,3-c]pyridin-2-yl)acetamide], the IC50 in assay [1] and in assay [2] was less than 500 nM each time.

`CC(=O)Nc1sc2c(c1-c1nc3cnccc3s1)C[C@@H](C)N[C@H]2C` [Compound 237]: the IC50 in assay [1] and in assay [2] was 500 to 5000 nM each time.

For `Cc1cc2sc(-c3c(NC(=O)CCNC(C)C)sc4c3CCNC4)nc2c(C)n1` [Compound 225, N-(3-(4,6-Dimethylthiazolo[4,5-c]pyridin-2-yl)-4,5,6,7-tetrahydrothieno[2,3-c]pyridin-2-yl)-3-(isopropylamino)propanamide dihydrochloride], the IC50 in assay [1] and in assay [2] was less than 500 nM throughout.

Consider `CC(=O)Nc1sc2c(c1-c1nc3c[n+]([O-])ccc3s1)CCNC2` [Compound 108, 2-(2-acetamido-4,5,6,7-tetrahydrothieno[2,3-c]pyridin-3-yl)thiazolo[4,5-c]pyridine 5-oxide], for which the IC50 in assay [1] and in assay [2] was 500 to 5000 nM each time.

Regarding `CCC(C)NCCC(=O)Nc1sc2c(c1-c1nc3cnccc3s1)CCN(C(C)C)C2` (centres unmarked) [Compound 116, 3-(sec-butylamino)-N-(6-isopropyl-3-(thiazolo[4,5-c]pyridin-2-yl)-4,5,6,7-tetrahydrothieno[2,3-c]pyridin-2-yl)propanamide dihydrochloride], the IC50 in assay [1] and in assay [2] was less than 500 nM throughout.

Take `COCCNCCC(=O)Nc1sc2c(c1-c1nc3cnc(C)cc3s1)CCNC2` [Compound 244]: the IC50 in assay [1] and in assay [2] was less than 500 nM in each case.

As for `COCCNCCC(=O)Nc1sc2c(c1-c1nc3cnc(Cl)cc3s1)CCNC2` [Compound 243], the 50% inhibitory concentration (IC50) in assay [1] and in assay [2] was less than 500 nM throughout.

As for `CCN1C(C)c2sc(NC(C)=O)c(-c3nc4c(C(F)F)nccc4s3)c2C[C@H]1C` (stereo in doubt) [Compound 235, N-((5R,7R)-3-(4-(difluoromethyl)thiazolo[4,5-c]pyridin-2-yl)-6-ethyl-5,7-dimethyl-4,5,6,7-tetrahydrothieno[2,3-c]pyridin-2-yl)acetamide], the IC50 in assay [1] and in assay [2] was less than 500 nM each time.

`CC[C@H](C)NCCC(=O)Nc1sc2c(c1-c1nc3cnccc3s1)CCN(CC)C2` [Compound 238, (S)-3-(sec-butylamino)-N-(6-ethyl-3-(thiazolo[4,5-c]pyridin-2-yl)-4,5,6,7-tetrahydrothieno[2,3-c]pyridin-2-yl)propanamide]: the IC50 in assay [1] and in assay [2] was less than 500 nM in each case.

As for `CCN1CCc2c(sc(NC(C)=O)c2-c2nc3cnccc3s2)[C@@H]1C` [Compound 232, (S)—N-(6-ethyl-7-methyl-3-(thiazolo[4,5-c]pyridin-2-yl)-4,5,6,7-tetrahydrothieno[2,3-c]pyridin-2-yl)acetamide], the IC50 in assay [1] and in assay [2] was less than 500 nM in each case.

Broadly, the IC50 is the concentration at which inhibition is half-maximal.

Values taken from patent publication US11753418B2, “Compounds for the modulation of Myc activity” (Syros Pharmaceuticals, Inc., priority 2015, dated 2023).
